The supplement of paper PMC4858399
Where a name gives a salt, the structure may show the parent alone.

Assays:
[1] = tested on: Caenorhabditis elegans N2; assay: lowest effective concentration for larval growth inhibition (size below effect threshold); higher = less potent; conditions: exposure time 48 h
How it was run: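 Worm size was taken as per-worm extinction on the Biosort, log-transformed and turned into well means. The larvae (C. elegans N2, L1 stage, 50 per 96-well) had spent 48 h at 20°C in K-medium with killed bacteria, 1% DMSO and 0.5, 1, 5, 10, 50, 100 or 200 µM chemical. The lowest effective concentration marks the first dose where the plate-adjusted mean size drops under a cutoff and remains under it at every higher dose; the cutoff is 5.665.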

[2] = tested on: Caenorhabditis elegans N2; assay: mean nematode size ln(EXT) after 48 h, plate-adjusted (DMSO control set to 6) (ln(EXT), control-adjusted); higher = larger nematodes / less growth inhibition; conditions: exposure time 48 h
How it was run: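 Worms were measured individually for extinction on the Biosort after 48 h at 20°C. They began as synchronised C. elegans N2 L1 larvae in K-medium with killed OP50, 1% DMSO and 0.5–200 µM chemical. Once debris had been removed by a growth model, values were natural-logged and averaged per well to give mean size. The plate adjustment subtracted the vehicle control mean and added 6.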

Row | SMILES | lowest effective concentration [1] | mean nematode size ln(EXT) (ln) ([2]; 0.5 µM) | mean nematode size ln(EXT) (ln) ([2]; 1 µM) | mean nematode size ln(EXT) (ln) ([2]; 5 µM) | mean nematode size ln(EXT) (ln) ([2]; 10 µM) | mean nematode size ln(EXT) (ln) ([2]; 50 µM) | mean nematode size ln(EXT) (ln) ([2]; 100 µM) | mean nematode size ln(EXT) (ln) ([2]; 200 µM)
1 | CC(C)c1ccc(C(=O)N=C(N)N)cc1S(C)(=O)=O [Cariporide mesylate (HOE642)] | > 200 µM | 5.88 | 5.82 | 5.8 | 5.77 | 5.7 | 5.62 | 5.71
2 | Oc1ccccc1O [Catechol] | > 200 µM | 5.94 | 5.82 | 5.86 | 5.84 | 5.9 | 5.95 | 5.72
3 | Nc1cnn(-c2ccccc2)c(=O)c1Cl [Chloridazon] | > 200 µM | 5.51 | 5.47 | 5.3 | 6.01 | 5.44 | 5.44 | 5.89
4 | O=C(O)CC(O)(CC(=O)O)C(=O)O [Citric acid] | > 200 µM | 5.85 | 6.03 | 6.03 | 5.9 | 5.99 | 5.63 | 5.73
5 | Clc1ccccc1-c1nnc(-c2ccccc2Cl)nn1 [Clofentezine] | > 200 µM | 6.25 | 6.03 | 6.11 | 5.96 | 5.86 | 5.98 | 5.73
6 | CC1(C)CON(Cc2ccccc2Cl)C1=O [Clomazone] | > 200 µM | 6.09 | 6.23 | 6.29 | 6.06 | 6.2 | 6.07 | 5.68
7 | CC(Oc1cccc(Cl)c1)C(=O)O (stereo not given) [Cloprop] | > 200 µM | 5.97 | 5.98 | 6.03 | 6.09 | 6.01 | 5.99 | 5.69
8 | O=C(O)c1nc(Cl)ccc1Cl [Clopyralid-olamine] | > 200 µM | 5.87 | 5.89 | 5.95 | 5.89 | 5.88 | 5.98 | 5.95
9 | O=C(O)c1nc(Cl)ccc1Cl [Clopyralid] | > 200 µM | 5.75 | 5.75 | 5.75 | 5.87 | 5.93 | 5.89 | 6.08
10 | CN/C(=N\[N+](=O)[O-])NCc1cnc(Cl)s1 [Clothianidin] | > 200 µM | 5.89 | 5.99 | 5.78 | 6.1 | 6.05 | 6.02 | 5.96
11 | COc1cc2c(c(OC)c1OC)-c1ccc(OC)c(=O)cc1[C@@H](NC(C)=O)CC2 [Colchicine] | > 200 µM | 5.82 | 5.93 | 5.87 | 5.95 | 5.92 | 5.89 | 5.7
12 | O=c1ccc2ccccc2o1 [Coumarin] | > 200 µM | 5.93 | 5.92 | 5.85 | 5.93 | 5.94 | 5.95 | 5.8
13 | N#CN [Cyanamide] | > 200 µM | 5.91 | 5.96 | 6.01 | 6 | 5.96 | 6.01 | 5.92
14 | CCNc1nc(Cl)nc(NC(C)(C)C#N)n1 [Cyanazine] | > 200 µM | 5.89 | 5.95 | 5.88 | 6.03 | 6.26 | 6.42 | 5.86
15 | O=C(O)C1(C(=O)Nc2ccc(Cl)cc2Cl)CC1 [Cyclanilide] | > 200 µM | 6.16 | 6.05 | 6.18 | 6.27 | 6.34 | 6.38 | 5.9
16 | NC1CCCCC1 [Cyclohexylamine] | > 200 µM | 5.84 | 5.95 | 5.82 | 5.85 | 5.98 | 5.83 | 5.86
17 | CC1(C)C(C=C(Cl)Cl)C1C(=O)OC(C#N)c1ccc(F)c(Oc2ccccc2)c1 (stereo not given) [Cyfluthrin] | > 200 µM | 6.09 | 6.69 | 6.12 | 6.22 | 6.18 | 6.44 | 5.7
18 | Nc1nc(N)nc(NC2CC2)n1 [Cyromazine] | > 200 µM | 5.45 | 5.67 | 5.56 | 5.57 | 5.42 | 6.14 | 5.94
19 | O=P1(N(CCCl)CCCl)NCCCO1 (stereo not given) [Cytoxan hydrate] | > 200 µM | 5.87 | 5.9 | 5.89 | 5.8 | 5.92 | 5.9 | 5.93
20 | CC(Cl)(Cl)C(=O)O [Dalapon] | > 200 µM | 5.78 | 6.06 | 6.05 | 6.04 | 5.95 | 5.93 | 5.79
21 | CN1CSC(=S)N(C)C1 [Dazomet] | > 200 µM | 5.73 | 5.62 | 5.46 | 5.71 | 5.78 | 5.55 | 5.83
22 | CCCCCCCCCC [Decane] | > 200 µM | 5.95 | 5.8 | 5.91 | 5.8 | 5.87 | 5.83 | 5.75
23 | O=C(OCCOCCOC(=O)c1ccccc1)c1ccccc1 [Di(ethylene glycol) dibenzoate] | 200 µM | 5.89 | 5.82 | 5.77 | 5.76 | 5.71 | 5.79 | 5.66
24 | CCCCCCCCOC(=O)c1ccccc1C(=O)OCCCCCCCC [Di-n-octyl phthalate] | > 200 µM | 5.93 | 5.87 | 5.9 | 5.85 | 5.88 | 5.83 | 5.83
25 | CCOP(=O)(OCC)Oc1cc(C)nc(C(C)C)n1 [Diazoxon] | > 200 µM | 6.19 | 6.09 | 6.08 | 6.06 | 6.05 | 6.1 | 5.93
26 | COc1c(Cl)ccc(Cl)c1C(=O)O [Dicamba] | > 200 µM | 5.78 | 5.92 | 5.72 | 5.98 | 6.18 | 6.37 | 6.03
27 | O=C(O)C(Cl)Cl [Dichloroacetic acid] | > 200 µM | 5.56 | 5.97 | 6.02 | 5.89 | 5.98 | 5.92 | 5.7
28 | O=C(O)Cc1ccccc1Nc1c(Cl)cccc1Cl [Diclofenac sodium salt] | > 200 µM | 5.93 | 5.95 | 5.92 | 5.99 | 5.92 | 5.9 | 5.83

Row | SMILES | lowest effective concentration [1] | mean nematode size ln(EXT) (ln) ([2]; 0.5 µM) | mean nematode size ln(EXT) (ln) ([2]; 1 µM) | mean nematode size ln(EXT) (ln) ([2]; 5 µM) | mean nematode size ln(EXT) (ln) ([2]; 10 µM) | mean nematode size ln(EXT) (ln) ([2]; 50 µM) | mean nematode size ln(EXT) (ln) ([2]; 100 µM) | mean nematode size ln(EXT) (ln) ([2]; 200 µM)
29 | CCOc1nc(F)cc2nc(S(=O)(=O)Nc3c(Cl)cccc3Cl)nn12 [Diclosulam] | > 200 µM | 6.11 | 6.13 | 6.09 | 6.14 | 6.15 | 6.17 | 5.79
30 | COP(=O)(OC)O/C(C)=C/C(=O)N(C)C [Dicrotophos] | > 200 µM | 6.11 | 6.42 | 6.04 | 6.07 | 6.05 | 6.05 | 5.85
31 | O=c1[nH]cnc2c1ncn2[C@H]1CC[C@@H](CO)O1 [Didanosine] | > 200 µM | 5.88 | 5.86 | 5.85 | 5.84 | 5.89 | 5.96 | 5.76
32 | OCCNCCO [Diethanolamine] | > 200 µM | 6.04 | 6.05 | 6.04 | 6.02 | 6.1 | 6.07 | 5.79
33 | CCOC(=O)c1ccccc1C(=O)OCC [Diethyl phthalate] | > 200 µM | 5.92 | 5.85 | 5.82 | 5.76 | 5.94 | 5.81 | 5.79
34 | CCOCCOCCO [Diethylene glycol monoethyl ether] | > 200 µM | 6.02 | 6.03 | 6.07 | 6.05 | 6.03 | 6.06 | 5.76
35 | COCCOCCO [Diethylene glycol monomethyl ether] | > 200 µM | 5.87 | 5.91 | 5.93 | 5.85 | 5.82 | 5.94 | 5.68
36 | OCCOCCO [Diethylene glycol] | > 200 µM | 5.91 | 5.95 | 5.92 | 5.86 | 5.92 | 5.78 | 5.69
37 | CCCCC(CC)COC(=O)c1ccccc1C(=O)OCC(CC)CCCC (stereo not given) [Diethylhexyl phthalate] | > 200 µM | 5.9 | 5.91 | 5.76 | 5.85 | 5.67 | 6.02 | 5.76
38 | CCN(CC)C(=O)c1cccc(C)c1 [Diethyltoluamide] | > 200 µM | 5.86 | 5.86 | 5.91 | 6.14 | 6 | 5.91 | 5.85
39 | Cn1c(-c2ccccc2)cc(-c2ccccc2)[n+]1C [Difenzoquat metilsulfate] | > 200 µM | 6.06 | 6.04 | 6.06 | 6.07 | 5.99 | 6.1 | 5.9
40 | CC(C)CCCCCCOC(=O)CCCCC(=O)OCCCCCCC(C)C [Diisononyl adipate] | > 200 µM | 5.94 | 5.98 | 5.93 | 5.92 | 5.87 | 5.91 | 5.69
41 | COCC(C)N(C(=O)CCl)c1c(C)csc1C (stereo not given) [Dimethenamid] | > 200 µM | 6.08 | 5.91 | 6.17 | 6.03 | 5.87 | 6.56 | 5.99
42 | CC1=C(C)S(=O)(=O)CCS1(=O)=O [Dimethipin] | > 200 µM | 5.96 | 5.96 | 5.91 | 5.93 | 5.98 | 6 | 5.93
43 | CNC(=O)CSP(=S)(OC)OC [Dimethoate] | > 200 µM | 6.23 | 6.15 | 6.18 | 6.23 | 6.24 | 6.21 | 5.95
44 | COC(=O)CCCC(=O)OC [Dimethyl glutarate] | > 200 µM | 5.91 | 5.94 | 5.9 | 6.02 | 6.01 | 6.04 | 5.78
45 | COC(=O)CC(=O)OC [Dimethyl malonate] | > 200 µM | 5.85 | 5.89 | 5.88 | 6.13 | 5.87 | 5.89 | 5.75
46 | COC(=O)c1ccccc1C(=O)OC [Dimethyl phthalate] | > 200 µM | 5.82 | 5.99 | 6.07 | 6.01 | 6.18 | 6.01 | 5.98
47 | COC(=O)CCC(=O)OC [Dimethyl succinate] | > 200 µM | 5.88 | 5.94 | 5.85 | 6.11 | 5.84 | 5.87 | 5.96
48 | CN(C)C(=O)Cl [Dimethylcarbamoyl chloride] | > 200 µM | 5.77 | 5.81 | 5.82 | 5.71 | 5.84 | 5.9 | 5.73
49 | CCCCCOC(=O)c1ccccc1C(=O)OCCCCC [Dipentyl phthalate] | > 200 µM | 5.85 | 5.86 | 5.89 | 5.87 | 5.85 | 5.81 | 5.73
50 | O=C(Oc1ccccc1)c1cccc(C(=O)Oc2ccccc2)c1 [Diphenyl isophthalate] | > 200 µM | 5.87 | 5.89 | 5.87 | 5.87 | 5.94 | 5.94 | 5.7
51 | CC(CO)OC(C)CO.CC(O)COCC(C)O (stereo not given) [Dipropylene glycol] | > 200 µM | 5.74 | 5.73 | 5.79 | 5.87 | 5.74 | 5.66 | 5.87
52 | CCCN(CCC)C(=O)SCC [EPTC] | > 200 µM | 6.11 | 6.22 | 6.09 | 6 | 6.1 | 6.12 | 5.86
53 | CC[C@H]1OC(=O)[C@H](C)[C@@H](O[C@H]2C[C@@](C)(OC)[C@@H](O)[C@H](C)O2)[C@H](C)[C@@H](O[C@@H]2O[C@H](C)C[C@H](N(C)C)[C@H]2O)[C@](C)(O)C[C@@H](C)C(=O)[C@H](C)[C@@H](O)[C@]1(C)O [Erythromycin] | > 200 µM | 5.95 | 5.89 | 5.94 | 5.9 | 5.86 | 5.92 | 5.84
54 | NCCO [Ethanolamine] | > 200 µM | 5.86 | 5.87 | 5.79 | 5.73 | 5.75 | 5.76 | 5.76
55 | O=P(O)(O)CCCl [Ethephon] | > 200 µM | 5.96 | 5.93 | 5.97 | 5.94 | 6.03 | 6.05 | 5.88
